From patent US20240239787A1, “COMPOUNDS FOR USE IN THE TREATMENT OF CANCER” (Nanyang Technological University, priority 2021, published 2024)

Columns and labels:
BRD4 [1] = biological target: T1, BRD4 (Homo sapiens, UniProt O60885); assay: BRD4 degradation by Western blot in HEK293T cells; format: cell-based; set-up: endogenous in cells; host or cells: HEK293T; settings: 12 h
Text: The effective production of BRD4 heterobifunctional degraders in solution allowed us to investigate the function of ENCTAC components in biological applications. […] Particularly, NTR responsive JW4, the pomalidomide-containing compound that can target CRBN and is a universal E3 ligase, is expected to be uncaged through NTR-assisted nitro and GSH reduction once it enters the hypoxic cells. The exposed cysteine groups are then readily linked with the CBT moieties on the JQ1-CBT fragments via a specific bioorthogonal click reaction. Besides, the JQ1 warheads are presumed to be simultaneously bound to the BRD4 proteins, thus forming bifunctional degraders in-situ for localized proteolysis (FIG. 17a). […] As proof-of-concept, the control molecule J266 that can only respond to GSH but not NTR, was first introduced into the HEK293T cell line (for 6 h), with subsequent addition of the JQ1-CBT (for 12 h). After intracellular formation of the click-J252, the proteolysis process was observed by western blot analysis.
HeLa, Hek293T, MDA-MB-231, 4T1 or B16F10 cells (1.5×10^6 cells/mL) were treated with J266 (10 μM) for 6 h before incubating with JQ1-CBT at the indicated concentrations and time. This entire incubation was performed in normoxia condition. […] The supernatant was collected and the protein concentration was analyzed by NanoDrop™ 2000/2000c Spectrophotometers. […]

HIF-1α = HIF-1α level in hypoxic Hela cells (immunofluorescence imaging, Western blot); format: cell-based, human
Description: (§1) HeLa, Hek293T, MDA-MB-231, 4T1 or B16F10 cells (1.5×10^6 cells/mL) were treated with J266 (10 μM) for 6 h before incubating with JQ1-CBT at the indicated concentrations and time. This entire incubation was performed in normoxia condition. For NTR-moiety caged JW4, the cells were treated with JW4 (10 μM) 6 h prior to the addition of JQ1-CBT for a subsequent 12 h, and was performed entirely under hypoxic condition. Comparison of the downstream effect between the controls and drug-treated cells were completely executed in hypoxic condition. To work up, the cells were washed with cold PBS (pH 7.4) twice, and lysed with RIPA buffer supplemented with protease inhibitor cocktail and phosphatase inhibitor cocktail for 10 min at 4° C. Then, the lysed cells were collected and centrifuged at 13,500 rpm for 20 min at 4° C. The supernatant was collected and the protein concentration was analyzed by NanoDrop™ 2000/2000c Spectrophotometers. The lysate volumes were fine-tuned and loaded onto a Mini-PROTEAN® TGX™ 4-20% Precast Gel and was separated by SDS-PAGE. Then, the gel was transferred onto a PVDF membrane (100 V, 90 min, 4° C.), washed with TBS-T twice, and blocked with 1% BSA for 1 h at r.t. Next, the membrane was incubated with primary antibody overnight at 4° C., washed thrice with TBS-T, followed by incubation with goat anti-rabbit IgG (H+L) Secondary Antibody, HRP for 1 h. The membrane was supplemented with Radiance Q chemiluminescent ECL substrate and visualized using Amersham™ ImageQuant™ 800 biomolecular imager. B-Tubulin was used as the internal control.
Hela cells were plated at a density of 8×10^4 cells/mL in each well of the eight-well ibidi dishes before experiment. To sustain the hypoxia-induced factor throughout the drug treatment process, drug incubation was performed entirely in hypoxic chamber. […] The fluorescence of the alleviated HIF-1α expression upon drug treatment was visualized with Carl Zeiss LSM 800 microscopes (Hoechst 33258: Ex=405 nm, Em=460/50 nm; Alexa Fluor 488: Ex=488 nm, Em=515/30 nm; Alexa Fluor 594: Ex=561 nm, Em=617/20 nm).

[2] = test system: broad range of enzymes and chemical agents; assay: Selectivity of JW4 with or without NADH (LC-MS); format: biochemical; settings: JW4 10 μM, reagents 0-40 μg/mL, 120 min
Description: A MS vial was sequentially added JW4 (10 μM), a reagent selected from sodium chloride, calcium chloride, ascorbic acid, glucose, cysteine, furin, CtsB, monoamine oxidase A (MAO-A) and monoamine oxidase B (MAO-B) (concentration range of 0-40 μg/mL), with or without the addition of NADH (0.5 mM) and the mixture was dissolved in PBS (pH 7.4, 10 mM) to a final volume of 500 μL. The mixture in the vial was vortexed and incubated at 37° C. for 120 min before it was subject to structural mass analysis.

NTR = NTR enzymatic cleavage in vitro (LC-MS); format: biochemical
Text: Upon the exertion of external enzymatic stimuli, the NTR-responsive moiety undergoes self-immolation to unleash the amino group. Simultaneously, the presence of a reduction agent cleaves the -StBu group to liberate thiol group (—SH), creating the cleaved-J266. The presence of a readily reactive amino group and thiol group on cleaved-J266, with the co-insertion of JQ1-CBT would spontaneously induce the CBT-cysteine orthogonal click conjugation, shaping the luciferin-based structure in click-J252 for targeted protein disruption (FIG. 12a). To validate the kinetics of ENCTAC formation, JW4 was tested against the presence of ntr enzyme accompanied by the co-factor, NADH, at 37° C. across a range of time settings in LC-MS system. The formation of J252 in the presence of J266 and JQ1-CBT was also evaluated by LC-MS.
A MS vial was sequentially added JW4 (10 μM), nicotinamide adenine dinucleotide (NADH, 0.5 mM) and NTR (40 μg/mL), and the mixture was dissolved in PBS (pH 7.4, 10 mM) to a total volume of 500 μL. The mixture in the vial was vortexed and incubated at 37° C. with varying time control from 0-240 min. Structural mass analysis was performed to observe any molecular mass alteration.
A MS vial was sequentially added JW4 (10 μM) or J268 ([…]), NADH (0.5 mM) and NTR (concentration range of 0-40 μg/mL), and the mixture was dissolved in PBS (pH 7.4, 10 mM) to a final volume of 500 μL. The mixture in the vial was vortexed and incubated at 37° C. for 120 min before subjecting to structural mass analysis.

BRD4 [3] = biological target: T1, BRD4; assay: Hook effect: BRD4 degradation at extended degrader concentrations under hypoxia; format: cell-based; set-up: endogenous in cells
Description: as §1, with “The membrane was supplemented with Radiance Q chemiluminescent ECL substrate and visualized using Amersham™ ImageQuant™ 800 biomolecular imager. B-Tubulin was used as the internal control.” left out

zebrafish embryos = assay: Yolk extension phenotype of zebrafish embryos; format: in vivo; settings: 50 μM, hypoxia-normoxia alternating 8 h
Description: Wide type zebrafish embryos at 12 hpf was incubated with J252 (50 μM), JW4 (50 μM), or the mixture of JW4 (50 μM) and JQ1-CBT (50 μM) in hypoxia-normoxia alternative condition for 8 h at 28° C. After that, the embryos were further incubated in normoxia condition at 28° C. for 16 h before the yolk extension phenotypes were visualized under Zeiss LSM800 confocal microscope using bright-field channel. Embryos with JW4+JQ1-CBT treatment under normoxia were used as the controls.

zebrafish larvae = assay: Vascularization of vhl mutant and wide type zebrafish larvae (confocal imaging); format: in vivo; settings: vhl^hu2117 crosses, 10 μM; non-treatment approximately one quarter
Description: Vasculature zebrafishes were obtained from natural crosses of the AB wild-type strain or vhl^+/hu2117 carriers on the fli1a:egfp^y1 transgenic background (which fluorescently marks the vasculature). JW4 and JQ1-CBT were dissolved in DMSO and the mixture was applied to embryos at equimolar concentration of 10 μM, with J252 (10 μM) and JQ1 (10 μM) used for the control experiments. […] The vascular plexus was imaged on a Zeiss LSM800 confocal microscope. Green: blood vessel tracker, .ex: 488 nm, .em: 520/30 nm; red: . ex: 564 nm, .em: 610/30 nm.

CK2α [4] = biological target: T2, CK2α (Homo sapiens, UniProt P68400); assay: Immunofluorescence staining of CK2α degradation over time; format: cell-based; set-up: Hek293T, MCF-7, and U205 cells were chosen as they can express different levels of CK2α protein; endogenous in cells; host or cells: HEK293T, MCF-7, U2OS; settings: 0.1 or 1 μM, prolonged time (up to 20 h); Hek293T, MCF-7, U205 cells
Description: After the synthesis of T44 and T120 in Examples 1 and 2, their properties for protein degradation were examined. Hek293T, MCF-7, and U205 cells were chosen as they can express different levels of CK2α protein.
[…] Upon washing with PBS buffer thrice, the protein degradation was examined by immunofluorescence staining.
Each group of cells with density of 5×10^4 cells in each well of 8-well ibidi-dishes was treated with T120 or T44 at different concentration (0.1 μM or 1 μM) and time (0 h, 6 h, 18 h or 30 h). After treatment, the cells were fixed with 4% paraformaldehyde for 15 min, permeabilized with 0.25% Triton™ X-100 for 10 min and blocked with 5% BSA for 1 h at room temperature. The cells were then labelled with CK2α Rabbit polyclonal Antibody (Cell signalling, #2656) in 1% BSA and incubated for 3 h at r.t. Subsequently, Alexa Fluor 488-Goat Anti-Rabbit IgG secondary antibody was stained for 30 min at r.t. The nucleus was stained with Hoechst 33342 for 30 min at r.t. The degradation of CK2α protein was visualized with Carl Zeiss LSM 800 microscopes. (Hoechst 33342: Ex=405 nm, Em=460/50 nm; Alexa Fluor 488: Ex=488 nm, Em=515/30 nm).

CK2α [5] = biological target: T2, CK2α; assay: Concentration-dependent test for CK2α degradation (immunofluorescence / Western blot); format: cell-based; settings: 24 h
Description: Based on the established method (From Merck), the lysates were loaded into the wells in a Mini-PROTEAN® TGX™ 4-20% Precast Gel and run for separation in 30 min under 200 V.
Cell lines including HEK293T and MCF-7 was incubated with varied concentrations of T44 or T120 for 24 h. After that, the protein level was evaluated by the above immunofluorescence staining protocol. Alternatively, the protein level was evaluated by Western blot analysis. Particularly, The lysates of each group of cells were collected and centrifuged at 12,000×g for 20 min at 4° C. Protein levels in supernatants were determined using Nanodrop and equalized to the same concentration and boiled for 10 min with SDS-PAGE sample loading buffer before being separated using SDS-PAGE and transferred to the PVDF membrane. The membrane was then blocked with 5% BSA-TBST blocking buffer overnight at 4° C. Subsequently, CK2α Rabbit polyclonal Antibody (Cell signalling, #2656) was incubated overnight at 4° C. in 1% BSA-TBST buffer. After series of washing, the goat-anti rabbit IGG (H&L) secondary antibody was added and incubated for 1 h in 1% BSA-TBST. All signals were visualized using […] (Image quant 800) system.

T2 sequence (P68400 whole entry): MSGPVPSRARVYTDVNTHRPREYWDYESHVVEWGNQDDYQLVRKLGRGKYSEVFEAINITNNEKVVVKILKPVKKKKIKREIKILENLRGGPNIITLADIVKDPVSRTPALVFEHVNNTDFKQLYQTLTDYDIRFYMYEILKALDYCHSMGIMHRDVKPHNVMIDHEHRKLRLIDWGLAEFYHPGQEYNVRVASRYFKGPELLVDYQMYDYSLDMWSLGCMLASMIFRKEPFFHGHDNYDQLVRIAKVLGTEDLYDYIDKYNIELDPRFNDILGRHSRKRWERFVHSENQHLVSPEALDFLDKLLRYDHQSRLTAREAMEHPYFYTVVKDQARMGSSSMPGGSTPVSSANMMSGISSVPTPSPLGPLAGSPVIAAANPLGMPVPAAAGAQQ

CK2α antibody fluorescence signal in cells after incubation (CK2α [4]) | CK2α degradation effect, concentration dependence (CK2α [5]; HEK293T and MCF-7 cells) | CK2α fluorescence change with different concentrations (CK2α [5]; MCF-7 cells) | Compound | BRD4 degradation by independent treatment (alone) (BRD4 [1]) | HIF-1α protein level (HIF-1α) | cleavage by different components and enzymes [2] | NTR enzymatic uncaging (self-immolation) followed by LC-MS (NTR; 10 μM substrate, NTR 40 μg/mL, NADH, 37° C., span of 4 h) | Kcat of NTR uncaging (NTR; NTR, NADH 0.5 mM, PBS pH 7.4, 37° C.) [s⁻¹] | Km (NTR; NTR, NADH 0.5 mM, PBS pH 7.4, 37° C., read-out: Km of NTR uncaging) [µM] | BRD4 degradation level (BRD4 [3]; 50 μM) | concentration at which decrease in efficiency of proteolysis started (hook effect) (BRD4 [3]; hypoxia) [µM] | yolk extension phenotype at 36 hpf (zebrafish embryos) | vascularized larvae (zebrafish larvae) [%]
 |  |  | CC(C)(C)SSC[C@@H](NC(=O)OCc1ccc([N+](=O)[O-])cc1)C(=O)NCCOCCOCC(=O)Nc1cccc2c1C(=O)N(C1CCC(=O)NC1=O)C2=O (some centres unmarked) [JW4, Pomalidomide-PEG-NTR] | did not induce any degradation | did not induce HIF-1α elimination | no obvious cleavage except for NTR+NADH | near to completion | 0.000262 | 101 |  |  |  | 
 |  |  | Cc1sc2c(c1C)C(c1ccc(Cl)cc1)=N[C@@H](CC(=O)Oc1ccc3nc(C4N=C(C(=O)NCCOCCOCC(=O)Nc5cccc6c5C(=O)N(C5CCC(=O)NC5=O)C6=O)CS4)sc3c1)c1nnc(C)n1-2 (some centres unmarked) [J252] |  | able to downregulate |  |  |  |  | around 20% | 5 | similarly less extension of yolk | 22.5
decreased fluorescence signals | cell-dependent | no obvious fluorescence change | COc1cc(/C=N/n2c(SC)nnc2-c2ccc(OCCOCCOCCOCc3cn(CCOCC(=O)Nc4cccc5c4C(=O)N(C4CCC(=O)NC4=O)C5=O)nn3)cc2)c(Br)cc1O (centres unmarked) [T44] |  |  |  |  |  |  |  |  |  | 
